Source: patent US10308592B2 (priority 2014, dated 2019)
Like-named read-outs stand apart in the source and are kept apart here.

Columns and labels:
rat [1] = settings: in vivo
rat [2] = settings: in vivo; cited from earlier work
male Sprague-Dawley rats = settings: rat, in vivo
[3] = male, Sprague-Dawley, rat
in vivo = settings: rat, po, 300 mg/kg
rats = settings: rat, in vivo, po, 300 mg/kg
mouse [4] = settings: in vivo, inhaled or intranasal
mouse [5] = settings: in vivo; cited from earlier work

COC(F)(F)C(F)C(F)(F)F (centres unmarked) [301-monohydride, CF3CFHCF2OCH3]
LC50 (LD50) data - inhalation (rat [1]): LC50 >10,000 ppm
NOAEL/NOEL data: NOAEL by inference (rat [1]; inhaled or intranasal): <10,000 ppm (rat

FC(F)C(F)(F)OCC(F)(F)F [AE-3000, CF3CH2OCF2CF2H]
LC50 (LD50) data - inhalation (rat [2]): LC50 3010 ppm

COC(F)(F)C(F)N1C(F)(F)C(F)(F)OC(F)(F)C1(F)F (centres unmarked) [Example 1, 2,2,3,3,5,5,6,6-octafluoro-4-(1,2,2-trifluoro-2-methoxy-ethyl)morpholine]
LC50 (LD50) data - inhalation (male Sprague-Dawley rats; male, Sprague-Dawley): LC50 >5000 ppm
4 hour LC-50 (male Sprague-Dawley rats): > 5000 ppm (v/v)
Clinical observations, body or organ weight effects (male Sprague-Dawley rats): no significant clinical observations or body or organ weight effects were noted
Survival and appearance during 14 day post dose recovery period (male Sprague-Dawley rats): All animals survived and appeared normal
NOAEL (No Observable Adverse Effect Level) (male Sprague-Dawley rats; inhaled or intranasal): > 5000 ppm (v/v)
NOAEL/NOEL data: NOEL (male Sprague-Dawley rats; inhaled or intranasal): NOEL >5000 ppm
Acute Vapor Hazard Ratio [3]: 4
chromatographic logP (physchem): 4.46

FC(F)C(F)(F)COC(F)(F)C(F)N1C(F)(F)C(F)(F)OC(F)(F)C1(F)F (centres unmarked) [Example 2, 2,2,3,3,5,5,6,6-octafluoro-4-[1,2,2-trifluoro-2-(2,2,3,3-tetrafluoropropoxy)ethyl]morpholine]
LD50 (in vivo): > 300 mg/kg
Adverse clinical observations during post dose recovery period (rats): No adverse clinical observations were noted
Necropsy results (rats): normal for all animals

CC(OC(F)(F)C(F)C(F)(F)F)C(F)(F)C(F)C(F)(F)F (centres unmarked) [Novec 7600, CF3CFHCF2CH(CH3)OCF2CFHCF3]
NOAEL/NOEL data: NOEL (rat [1]; inhaled or intranasal): 29d) <500 ppm

COC(F)(F)C(C(F)(F)F)C(F)(F)F [OIME, (CF3)2CHCF2OCH3]
NOAEL/NOEL data: NOAEL by inference (mouse [4]): <660 ppm (mouse,
LC50 (LD50) data - inhalation (mouse [5]): LC50 660 ppm
